Results published in ChEMBL document CHEMBL3352071, “Benzimidazoles: novel mycobacterial gyrase inhibitors from scaffold morphing” (ACS Med Chem Lett, 2014).
In brackets after ≈: the same amount, converted by molar mass.

How the values were obtained:
[1] = system: Mycobacterium tuberculosis; test: Antimicrobial activity against Mycobacterium tuberculosis H37Rv ATCC 27294; format: functional
[2] = target: Cytochrome P450 2C9 (Homo sapiens, UniProt P11712); test: Inhibition of CYP2C9 (unknown origin); format: ADME
[3] = Clearance in Wistar rat at 1 mg/kg, iv; format: ADME, organism-based; set-up: dose 1 mg/kg, route intravenous; details: in vivo
[4] = target: Cytochrome P450 3A4 (Homo sapiens, UniProt P08684); test: Inhibition of CYP3A4 (unknown origin); format: ADME
[5] = AUC (0 to infinity) in Wistar rat at 1 mg/kg, iv; format: ADME, organism-based; set-up: time infinity, dose 1 mg/kg, route intravenous; details: plasma
[6] = AUC (0 to infinity) in Wistar rat at 10 mg/kg, po; format: ADME, organism-based; set-up: time infinity, dose 10 mg/kg, route oral; details: plasma
[7] = target: Cytochrome P450 2D6 (Homo sapiens, UniProt P10635); test: Inhibition of CYP2D6 (unknown origin); format: ADME
[8] = target: Cytochrome P450 2C19 (Homo sapiens, UniProt P33261); test: Inhibition of CYP2C19 (unknown origin); format: ADME
[9] = Volume of distribution at steady state in Wistar rat at 1 mg/kg, iv; format: ADME, organism-based; set-up: dose 1 mg/kg, route intravenous; details: in vivo, read-out: Vdss
[10] = Inhibition of Mycobacterium tuberculosis H37Rv DNA gyrase A2B2 holoenzyme supercoiling activity using relaxed pBR322 substrate incubated for 90 mins by ethidium bromide staining based gel electrophoresis method
[11] = Oral bioavailability in Wistar rat at 10 mg/kg; format: ADME, organism-based; details: in vivo
[12] = target: T1, Cytochrome P450 1A2 (Homo sapiens, UniProt P05177); test: Inhibition of CYP1A2 (unknown origin); format: ADME
T1 sequence (P05177 whole entry): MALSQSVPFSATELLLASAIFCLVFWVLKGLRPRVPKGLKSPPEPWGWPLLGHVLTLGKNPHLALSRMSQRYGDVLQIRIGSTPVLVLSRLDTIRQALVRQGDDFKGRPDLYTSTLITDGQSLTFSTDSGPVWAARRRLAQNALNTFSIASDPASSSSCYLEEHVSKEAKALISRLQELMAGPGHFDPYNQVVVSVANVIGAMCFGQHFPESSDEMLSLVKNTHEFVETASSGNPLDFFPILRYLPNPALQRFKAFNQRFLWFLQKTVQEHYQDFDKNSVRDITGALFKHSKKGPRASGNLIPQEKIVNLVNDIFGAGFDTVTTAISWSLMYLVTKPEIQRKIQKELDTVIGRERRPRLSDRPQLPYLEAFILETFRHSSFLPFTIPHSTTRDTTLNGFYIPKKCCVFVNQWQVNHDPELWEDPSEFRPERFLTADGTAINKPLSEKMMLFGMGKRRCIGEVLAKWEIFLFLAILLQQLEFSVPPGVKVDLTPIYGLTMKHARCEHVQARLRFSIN

[13] = Elimination half life in Wistar rat at 1 mg/kg, iv; format: ADME, organism-based; set-up: dose 1 mg/kg, route intravenous; details: in vivo, read-out: beta t1/2 (converted)
[14] = Permeability from basolateral to apical side in human Caco2 cells; format: ADME, cell-based; details: Caco-2, read-out: permeability
[15] = Permeability from apical to basolateral side in human Caco2 cells; format: ADME, cell-based; details: Caco-2, read-out: permeability
[16] = Solubility of the compound; format: physicochemical
[17] = Octanol-water partition coefficient, logD of the compound at pH 7.4 by shake-flask method; format: physicochemical
[18] = target: Voltage-gated inwardly rectifying potassium channel KCNH2 (Homo sapiens, UniProt Q12809)
Description: Inhibition of human ERG by electrophysiology assay

[19] = target: DNA gyrase subunit B (Mycobacterium smegmatis, UniProt P0C559); test: Inhibition of Mycobacterium smegmatis GyrB ATPase activity; set-up: species or system Mycolicibacterium smegmatis
[20] = system: THP-1; test: Cytotoxicity against human THP1 cells; format: cell-based

Chain of Voltage-gated inwardly rectifying potassium channel KCNH2 (Q12809 whole entry): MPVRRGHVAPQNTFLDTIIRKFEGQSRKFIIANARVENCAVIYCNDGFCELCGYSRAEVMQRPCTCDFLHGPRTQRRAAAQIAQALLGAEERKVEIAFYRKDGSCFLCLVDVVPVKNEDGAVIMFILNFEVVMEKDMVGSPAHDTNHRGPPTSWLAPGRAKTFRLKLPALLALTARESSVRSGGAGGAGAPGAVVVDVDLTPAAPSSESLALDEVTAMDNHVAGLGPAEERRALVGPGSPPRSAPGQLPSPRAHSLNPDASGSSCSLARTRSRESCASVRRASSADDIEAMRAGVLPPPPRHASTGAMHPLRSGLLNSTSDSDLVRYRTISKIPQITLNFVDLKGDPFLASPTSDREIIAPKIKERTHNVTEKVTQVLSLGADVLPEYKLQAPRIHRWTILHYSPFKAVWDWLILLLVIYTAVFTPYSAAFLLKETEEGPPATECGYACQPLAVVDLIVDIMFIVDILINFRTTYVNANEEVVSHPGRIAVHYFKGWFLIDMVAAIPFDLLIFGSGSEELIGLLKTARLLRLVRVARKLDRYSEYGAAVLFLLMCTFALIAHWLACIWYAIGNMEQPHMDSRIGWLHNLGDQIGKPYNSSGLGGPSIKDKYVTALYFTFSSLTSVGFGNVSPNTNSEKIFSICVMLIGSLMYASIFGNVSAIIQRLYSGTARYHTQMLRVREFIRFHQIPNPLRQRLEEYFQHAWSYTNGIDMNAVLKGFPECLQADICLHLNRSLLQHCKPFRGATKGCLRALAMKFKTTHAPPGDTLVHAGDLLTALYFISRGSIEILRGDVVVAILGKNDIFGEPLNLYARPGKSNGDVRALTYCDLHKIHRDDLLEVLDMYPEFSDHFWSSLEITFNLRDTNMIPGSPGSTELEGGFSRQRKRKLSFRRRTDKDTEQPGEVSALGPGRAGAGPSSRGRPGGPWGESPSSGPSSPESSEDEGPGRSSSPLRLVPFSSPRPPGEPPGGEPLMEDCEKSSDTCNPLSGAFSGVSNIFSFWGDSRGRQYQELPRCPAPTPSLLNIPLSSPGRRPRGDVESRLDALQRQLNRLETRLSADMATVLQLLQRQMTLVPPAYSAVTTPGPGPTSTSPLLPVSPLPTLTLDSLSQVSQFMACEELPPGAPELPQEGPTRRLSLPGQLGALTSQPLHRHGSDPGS
Chain of DNA gyrase subunit B (P0C559 whole entry): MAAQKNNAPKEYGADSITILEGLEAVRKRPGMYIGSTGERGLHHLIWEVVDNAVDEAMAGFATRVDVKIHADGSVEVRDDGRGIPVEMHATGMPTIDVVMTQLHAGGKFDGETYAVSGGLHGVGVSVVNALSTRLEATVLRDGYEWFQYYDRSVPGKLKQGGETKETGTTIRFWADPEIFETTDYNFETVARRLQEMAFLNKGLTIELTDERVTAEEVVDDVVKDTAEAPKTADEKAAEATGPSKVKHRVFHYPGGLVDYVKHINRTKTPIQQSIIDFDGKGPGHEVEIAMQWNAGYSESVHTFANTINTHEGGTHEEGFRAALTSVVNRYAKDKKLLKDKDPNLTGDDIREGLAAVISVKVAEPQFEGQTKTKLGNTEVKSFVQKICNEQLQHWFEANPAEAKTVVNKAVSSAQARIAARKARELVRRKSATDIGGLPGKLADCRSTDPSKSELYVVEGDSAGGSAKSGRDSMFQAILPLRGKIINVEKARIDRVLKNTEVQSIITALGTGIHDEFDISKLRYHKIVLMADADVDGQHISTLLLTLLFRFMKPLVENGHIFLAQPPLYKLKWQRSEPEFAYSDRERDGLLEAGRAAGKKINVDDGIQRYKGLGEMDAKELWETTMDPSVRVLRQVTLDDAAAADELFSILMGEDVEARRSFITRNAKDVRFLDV
Chain of Cytochrome P450 3A4 (P08684 whole entry): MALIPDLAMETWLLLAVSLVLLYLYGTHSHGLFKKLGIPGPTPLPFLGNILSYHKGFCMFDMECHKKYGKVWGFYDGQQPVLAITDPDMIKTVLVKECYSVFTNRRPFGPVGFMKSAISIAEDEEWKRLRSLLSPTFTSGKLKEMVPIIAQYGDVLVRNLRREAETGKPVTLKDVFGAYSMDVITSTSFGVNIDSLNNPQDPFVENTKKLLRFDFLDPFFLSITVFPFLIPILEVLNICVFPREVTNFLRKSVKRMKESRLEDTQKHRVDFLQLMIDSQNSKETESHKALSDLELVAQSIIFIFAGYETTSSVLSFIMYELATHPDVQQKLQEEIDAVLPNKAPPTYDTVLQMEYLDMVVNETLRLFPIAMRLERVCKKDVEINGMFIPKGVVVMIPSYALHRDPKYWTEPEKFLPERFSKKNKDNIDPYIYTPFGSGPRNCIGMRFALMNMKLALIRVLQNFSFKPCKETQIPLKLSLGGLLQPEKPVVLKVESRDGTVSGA
Chain of Cytochrome P450 2C9 (P11712 whole entry): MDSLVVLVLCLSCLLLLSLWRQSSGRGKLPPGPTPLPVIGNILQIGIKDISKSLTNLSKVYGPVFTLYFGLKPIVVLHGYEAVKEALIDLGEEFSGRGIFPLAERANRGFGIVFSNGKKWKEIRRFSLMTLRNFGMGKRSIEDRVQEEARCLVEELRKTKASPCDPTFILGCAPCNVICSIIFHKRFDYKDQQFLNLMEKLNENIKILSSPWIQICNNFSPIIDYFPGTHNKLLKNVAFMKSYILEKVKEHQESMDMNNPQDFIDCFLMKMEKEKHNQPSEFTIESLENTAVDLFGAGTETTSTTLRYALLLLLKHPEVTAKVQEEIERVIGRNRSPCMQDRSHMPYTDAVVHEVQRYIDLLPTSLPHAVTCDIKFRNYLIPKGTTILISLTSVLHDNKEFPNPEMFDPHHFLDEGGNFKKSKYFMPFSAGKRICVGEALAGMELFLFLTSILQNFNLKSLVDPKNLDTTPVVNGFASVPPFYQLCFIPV
Chain of Cytochrome P450 2C19 (P33261 whole entry): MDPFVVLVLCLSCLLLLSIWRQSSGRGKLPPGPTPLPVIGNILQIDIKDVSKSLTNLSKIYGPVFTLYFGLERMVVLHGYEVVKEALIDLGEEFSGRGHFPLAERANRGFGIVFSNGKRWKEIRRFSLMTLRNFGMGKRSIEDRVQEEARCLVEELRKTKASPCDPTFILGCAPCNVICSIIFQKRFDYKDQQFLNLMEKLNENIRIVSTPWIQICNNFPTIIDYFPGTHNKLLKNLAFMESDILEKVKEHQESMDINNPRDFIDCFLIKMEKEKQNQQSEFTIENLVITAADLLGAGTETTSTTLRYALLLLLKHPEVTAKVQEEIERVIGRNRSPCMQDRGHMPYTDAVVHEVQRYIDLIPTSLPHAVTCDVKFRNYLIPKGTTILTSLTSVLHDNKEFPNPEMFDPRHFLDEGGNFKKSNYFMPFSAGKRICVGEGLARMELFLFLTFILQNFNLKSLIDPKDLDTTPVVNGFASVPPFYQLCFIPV
Chain of Cytochrome P450 2D6 (P10635 whole entry): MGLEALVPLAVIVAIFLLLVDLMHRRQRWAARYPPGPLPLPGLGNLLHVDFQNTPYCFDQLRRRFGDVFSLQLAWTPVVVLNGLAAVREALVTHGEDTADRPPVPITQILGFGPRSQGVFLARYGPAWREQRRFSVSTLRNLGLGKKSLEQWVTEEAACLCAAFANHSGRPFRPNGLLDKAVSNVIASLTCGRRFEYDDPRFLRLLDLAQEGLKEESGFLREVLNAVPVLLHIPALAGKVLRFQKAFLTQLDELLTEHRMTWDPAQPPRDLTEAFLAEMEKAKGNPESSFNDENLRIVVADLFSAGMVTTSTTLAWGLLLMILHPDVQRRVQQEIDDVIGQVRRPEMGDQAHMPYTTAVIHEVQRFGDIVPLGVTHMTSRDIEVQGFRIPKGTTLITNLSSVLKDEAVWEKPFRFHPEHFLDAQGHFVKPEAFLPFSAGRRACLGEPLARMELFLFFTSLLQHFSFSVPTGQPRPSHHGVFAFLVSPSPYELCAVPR

| SMILES | MIC [1] [µM] | logD [17] | IC50 [18] [µM] | further results |
| --- | --- | --- | --- | --- |
| O=c1ccc2ncc(F)cc2n1CCN1CCC(c2nc3cc(C(F)(F)F)ccc3[nH]2)CC1 | 0.78 (≈ 0.358 µg/mL) | – | – | – |
| COc1cnc2ccc(=O)n(CCN3CCC(c4nc5cc(C#N)c(C)cc5[nH]4)CC3)c2c1 | 0.19 (≈ 0.0841 µg/mL) | 2.8 | – | IC50 [2]: > 30 µM; clearance [3]: 2.13 L/h/kg; IC50 [4]: 9.4 µM; AUC(0-inf) [5]: 0.47 µg·h/mL; AUC(0-inf) [6]: 0.02 µg·h/mL; IC50 [7]: 28 µM; IC50 [8]: > 30 µM; Vd [9]: 1.01 L/kg; IC50 [10]: 4.3 µM; bioavailability [11]: 1.1%; IC50 [12]: > 30 µM; half-life [13]: 36 min; Papp B→A [14]: 281 nm/s; Papp A→B [15]: 4 nm/s; solubility [16]: 2.1 µM (≈ 0.929 µg/mL) |
| COc1cnc2ccc(=O)n(CCN3CCC(c4c[nH]c5ccc(C#N)cc45)CC3)c2c1 | 100 (≈ 42.8 µg/mL) | 3.3 | 2 | IC50 [10]: > 50 µM; IC50 [19]: > 100 µM; IC50 [20]: > 50 µM |
| COc1c(N2C[C@@H]3CCCN[C@@H]3C2)c(F)cc2c(=O)c(C(=O)O)cn(C3CC3)c12 [MOXIFLOXACIN] | 0.13 (≈ 0.0522 µg/mL) | – | – | – |
| COc1cnc2ccc(=O)n(CCN3CCC(c4nc5cc(Cl)c(F)cc5[nH]4)CC3)c2c1 | 0.06 (≈ 0.0274 µg/mL) | 4 | – | IC50 [10]: 2 µM |
| COc1cnc2ccc(=O)n(CCN3CCC(c4nc5cc(Cl)c(C)cc5[nH]4)CC3)c2c1 | 0.13 (≈ 0.0588 µg/mL) | 3.8 | – | – |
| COc1cnc2ccc(=O)n(CCN3CCN(c4nc5cc(C(F)(F)F)ccc5[nH]4)CC3)c2c1 | 3.13 (≈ 1.48 µg/mL) | 2.8 | 10 | – |
| COc1cnc2ccc(=O)n(CCN3CCC(c4c[nH]c5cc(C(F)(F)F)ccc45)CC3)c2c1 | 50 (≈ 23.5 µg/mL) | 4 | – | IC50 [10]: > 50 µM; IC50 [19]: > 100 µM; IC50 [20]: > 50 µM |
| COc1ccc2ncc(=O)n(CCN3CCC(c4nc5cc(Cl)c(C)cc5[nH]4)CC3)c2c1 | 0.13 (≈ 0.0588 µg/mL) | – | – | – |
| COc1cnc2ccc(=O)n(CCN3CCC(c4nc5cc(C(F)(F)F)ccc5[nH]4)CC3)c2c1 | 0.19 (≈ 0.0896 µg/mL) | 4 | – | IC50 [19]: > 100 µM; IC50 [20]: > 50 µM |
| N#Cc1ccc2[nH]c(C3CCN(CCn4c(=O)ccc5ncc(Oc6cccnc6)cc54)CC3)nc2c1 | 3.13 (≈ 1.54 µg/mL) | 2.9 | – | – |
| COc1cnc2ccc(=O)n(CCN3CCN(c4nc5ccccc5[nH]4)CC3)c2c1 | 100 (≈ 40.4 µg/mL) | 2.4 | 7 | – |
| NNC(=O)c1ccncc1 [ISONIAZID] | 0.06 (≈ 0.00823 µg/mL) | – | – | – |
| N#Cc1ccc2[nH]c(C3CCN(CCn4c(=O)ccc5ncc(Oc6ccc(S(N)(=O)=O)cc6)cc54)CC3)nc2c1 | 0.78 (≈ 0.444 µg/mL) | 2.2 | > 33 | – |
| Cc1cc2[nH]c(C3CCN(CCn4c(=O)ccc5ncc(F)cc54)CC3)nc2cc1C#N | 3.15 (≈ 1.36 µg/mL) | – | – | – |
| N#Cc1ccc2[nH]c(C3CCN(CCn4c(=O)ccc5ncc(F)cc54)CC3)nc2c1 | 50 (≈ 20.8 µg/mL) | – | – | – |
| NS(=O)(=O)c1ccc(Oc2cnc3ccc(=O)n(CCN4CCC(c5nc6cc(C(F)(F)F)ccc6[nH]5)CC4)c3c2)cc1 | 0.19 (≈ 0.116 µg/mL) | 2.4 | > 33 | IC50 [10]: 1.9 µM |
| COc1cnc2ncc(=O)n(CCN3CCC(c4nc5cc(Cl)c(C)cc5[nH]4)CC3)c2c1 | 0.39 (≈ 0.177 µg/mL) | 3.5 | 10 | – |
| COc1cnc2ccc(=O)n(CCN3CCC(C4C(=O)Nc5ccc(Cl)cc54)CC3)c2c1 (stereo not drawn) | 100 (≈ 45.3 µg/mL) | 2.8 | 4.8 | IC50 [10]: > 50 µM; IC50 [19]: > 100 µM; IC50 [20]: > 50 µM |
| COc1cnc2ccc(=O)n(CCN3CCC(c4nc5cc(Cl)ccc5[nH]4)CC3)c2c1 | 0.25 (≈ 0.109 µg/mL) | 3.6 | – | – |
| COc1cnc2ccc(=O)n(CCN3CCN(c4nc5cc(C#N)c(C)cc5[nH]4)CC3)c2c1 | 0.78 (≈ 0.346 µg/mL) | 3.2 | > 33 | IC50 [2]: > 30 µM; clearance [3]: 1.93 L/h/kg; IC50 [4]: 20 µM; AUC(0-inf) [5]: 0.52 µg·h/mL; AUC(0-inf) [6]: 0.16 µg·h/mL; IC50 [7]: 20 µM; IC50 [8]: > 30 µM; Vd [9]: 1.54 L/kg; bioavailability [11]: 3.3%; IC50 [12]: > 30 µM; half-life [13]: 48 min; Papp B→A [14]: 241 nm/s; Papp A→B [15]: 15 nm/s; solubility [16]: 3 µM (≈ 1.33 µg/mL) |
| Cc1cc2[nH]c(C3CCN(CCn4c(=O)ccc5ncc(F)cc54)CC3)nc2cc1Cl | 1.56 (≈ 0.686 µg/mL) | 3.7 | 1.2 | – |
| N#Cc1ccc2ccc(=O)n(CCN3CCC(NCc4ccc5c(n4)NC(=O)CO5)CC3)c2c1 | 0.19 (≈ 0.0871 µg/mL) | – | – | IC50 [10]: 0.11 µM |
| O=c1ccc2ncc(F)cc2n1CCN1CCN(c2nc3cc(C(F)(F)F)ccc3[nH]2)CC1 | 15 (≈ 6.91 µg/mL) | 3.7 | – | – |
| O=C(O)c1cn(C2CC2)c2cc(N3CCNCC3)c(F)cc2c1=O [CIPROFLOXACIN] | 0.5 (≈ 0.166 µg/mL) | – | – | – |
| COc1cnc2ccc(=O)n(CCN3CCC(c4nc5cc(C#N)ccc5[nH]4)CC3)c2c1 | 3.15 (≈ 1.35 µg/mL) | 2.4 | – | – |
| O=c1ccc2ncc(F)cc2n1CCN1CCC(NCc2ccc(C(F)(F)F)nc2)CC1 | 0.19 (≈ 0.0854 µg/mL) | – | – | IC50 [10]: 0.25 µM |
